Measurements as given in patent US20230364091A1, “COMPOSITIONS AND METHODS FOR TREATING CANCER” (The Regents of the University of California, priority 2020, published 2023).

How the values were obtained:
[1] = test system: HCC827 cells (EGFR exon 19 deletion); assay: Cellular IC50, Cell Titer Glo viability, HCC827; format: cell-based; conditions: Homo sapiens, 72 hours
Method: (§1) PC-9 cells were purchased from Sigma, and HCC827 cells were purchased from ATCC. Each cell line was maintained at ≤passage 10 at 37° C. in a humidified incubator with 5% CO2. Cells were plated in 96-well optical bottom plates (Corning #3903; Corning, NY) at a cell density of 5,000 cells/well, allowed to adhere for minimally 16 hours, and subsequently treated with the test compounds using an 11-point serial dilution (1:3) in duplicate using an HP D300 digital 4 dispenser (Tecan, Morrisville, NC). 72 hours after addition of the test compounds, Cell Titer Glo reagent (Promega, Madison, WI) was added to the plate according to manufacturer's protocol and luminescence measured using a Spectramax M5 (Molecular Devices, San Jose, CA). IC50s were calculated using the 4-parameter variable slope curve fit using the equation below where, Y and X are variables plotted, Top and Bottom are plateaus in the units of the Y axis, Log IC50 is the Log transformation of the IC50 value and HillSlope is the Hill Slope for the curve and describes curve steepness (GraphPad Prism, version 6.07, GraphPad Software, Inc.). Y=Bottom+(Top−Bottom)/(1+10((Log IC50−X)*HillSlope)))

[2] = test system: PC-9 cells (EGFR exon 19 deletion); assay: Cellular IC50, Cell Titer Glo viability, PC-9; format: cell-based; conditions: Homo sapiens, 72 hours
Method: as §1

[3] = Brain penetration in non-tumor bearing mice; format: in vivo; conditions: mouse, brain and plasma, unbound ratio of drug in brain to plasma
Source text: Disclosed in table 5 Brain to plasma percentages and unbound ratios of drugs in brain to plasma of indicated drugs in non-tumor bearing mice

SMILES	IC50 [1] [nM]	IC50 [2] [nM]	Kp uu [3]
Fc1c(Br)cccc1Nc1ncnc2cc3c(cc12)O[C@@H](CN1CCCCC1)CO3 [JCN065S, (S)—N-(3-bromo-2-fluorophenyl)-7-(piperidin-1-ylmethyl)-7,8-dihydro-[1,4]dioxino[2,3-g]quinazolin-4-amine]	49.5	53.9	–
Fc1c(Br)cccc1Nc1ncnc2cc3c(cc12)O[C@@H](CN1CCNCC1)CO3 [JGK083S, (7S)—N-(3-Bromo-2-fluorophenyl)-7-[(piperazin-1-yl)methyl]-7,8-dihydro[1,4]dioxino [2,3-g]quinazolin-4-amine]	–	–	0.798
CN1CCN(CC2COc3cc4ncnc(Nc5cccc(Br)c5F)c4cc3O2)CC1 (racemic) [JGK068, (±)-N-(3-Bromo-2-fluorophenyl)-7-[(4-methylpiperazin-1-yl)methyl]-7,8-dihydro[1,4]dioxino[2,3-g]quinazolin-4-amine]	–	–	1.18
Fc1c(Br)cccc1Nc1ncnc2cc3c(cc12)O[C@@H](CN1CCOCC1)CO3 [JCN063S, (S)—N-(3-bromo-2-fluorophenyl)-7-(morpholinomethyl)-7,8-dihydro-[1,4]dioxino[2,3-g]quinazolin-4-amine]	12.7	21.7	–
Fc1c(Br)cccc1Nc1ncnc2cc3c(cc12)O[C@@H](CN1CCCC1)CO3 [JCN067S, (S)—N-(3-bromo-2-fluorophenyl)-7-(pyrrolidin-1-ylmethyl)-7,8-dihydro-[1,4]dioxino[2,3-g]quinazolin-4-amine]	25.7	36.2	–
Fc1c(Br)cccc1Nc1ncnc2cc3c(cc12)OC(CN1CCOCC1)CO3 (racemic) [JGK063, (±)-N-(3-Bromo-2-fluorophenyl)-7-[(morpholin-4-yl)methyl]-7,8-dihydro[1,4]dioxino[2,3-g]quinazolin-4-amine]	–	–	0.341
CN(C)CC1COc2cc3ncnc(Nc4cccc(Br)c4F)c3cc2O1 (racemic) [JGK066, (±)-N-(3-Bromo-2-fluorophenyl)-7-[(dimethylamino)methyl]-7,8-dihydro[1,4]dioxino[2,3-g]quinazolin-4-amine]	–	–	1.18
CN1CCN(C[C@H]2COc3cc4ncnc(Nc5cccc(Br)c5F)c4cc3O2)CC1 [JGK068S, (7S)—N-(3-Bromo-2-fluorophenyl)-7-[(4-methylpiperazin-1-yl)methyl]-7,8-dihydro[1,4]dioxino [2,3-g]quinazolin-4-amine]	–	–	1.18
